Experimental data reported in ChEMBL document CHEMBL1201862, “PubChem BioAssay data set” (2004).
Activity calls are given as the source filed them.

What was measured:
[1] = biological target: T1, Fructose-bisphosphate aldolase (Mycobacterium tuberculosis, UniProt P9WQA3); assay: Fluorescence-based biochemical high throughput dose response assay for inhibitors of the fructose-bisphosphate aldolase (FBA) of M. tuberculosis.; assay type: functional
T1 sequence (P9WQA3 whole entry): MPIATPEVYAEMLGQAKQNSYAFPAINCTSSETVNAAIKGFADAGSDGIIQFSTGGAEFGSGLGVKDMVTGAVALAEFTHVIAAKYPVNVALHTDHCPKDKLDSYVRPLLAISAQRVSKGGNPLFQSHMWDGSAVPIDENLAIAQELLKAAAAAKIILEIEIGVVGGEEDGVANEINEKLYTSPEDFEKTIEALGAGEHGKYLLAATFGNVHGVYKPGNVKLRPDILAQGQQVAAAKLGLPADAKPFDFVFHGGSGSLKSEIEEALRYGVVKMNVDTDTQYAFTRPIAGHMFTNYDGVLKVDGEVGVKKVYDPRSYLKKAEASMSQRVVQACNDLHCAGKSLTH

[2] = cytotoxicity in HPDE-C7 cells, cell-based, fluorescence, HTS (AID 430); assay type: functional; conditions: Homo sapiens
[3] = cytotoxicity toward NIH3T3 fibroblasts, dose response, counter-screen, cell-based, ATP luminescence, mouse fibroblasts (AID 2010); assay type: functional;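 further: cells exposed to compound for about 90 hours before reading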
[4] = inhibitors of intracellular T. cruzi replication, confirmation, NIH3T3 host cells, beta-gal luminescence (AID 2044); assay type: functional, cell-based;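 further: intracellular parasites grown in NIH/3T3 mouse fibroblasts as host cells; luminescent beta-galactosidase reporter signal from transgenic T. cruzi replicating inside host cells; inhibitors lower the luminescence signal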
[5] = cytotoxicity in KRAS-transformed pancreatic duct cells, primary screen, cell-based, fluorescence, HTS (AID 431); assay type: functional; conditions: Homo sapiens;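 further: cell line used: HPDE-C7K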
[6] = HepG2 cell cytotoxicity, dose response, cytotoxicity control, ATP luminescence, cherry-pick, activator set 2 (AID 1053143); assay type: functional, cell-based
[7] = biological target: Major prion protein (Homo sapiens, UniProt P04156); assay type: functional, cell-based
[8] = cells
[9] = human group III sPLA2 inhibitors, dose response, biochemical, QFRET, IC50 (AID 743457);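 further: green fluorescence rise as the enzyme cleaves BODIPY PC-A2 in liposomes; potency for inhibition of the enzyme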
[10] = biological target: Protein-tyrosine kinase 2-beta (Homo sapiens, UniProt Q14289);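 further: potency of inhibitors of PYK2 kinase phosphorylation of poly-GT substrate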
[11] = biological target: Estrogen receptor beta (Homo sapiens, UniProt Q92731);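 further: recombinant ER-beta bound to coactivator SRC1 peptide in presence of estradiol agonist; inhibitors block coactivator peptide binding and lower the FRET signal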
[12] = biological target: T2, Nuclear receptor subfamily 0 group B member 1 (Homo sapiens, UniProt P51843); assay type: functional, cell-based;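 further: HEK293T cells transfected with SF-1 and DAX-1 plus StAR promoter luciferase reporter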
T2 sequence (P51843 whole entry): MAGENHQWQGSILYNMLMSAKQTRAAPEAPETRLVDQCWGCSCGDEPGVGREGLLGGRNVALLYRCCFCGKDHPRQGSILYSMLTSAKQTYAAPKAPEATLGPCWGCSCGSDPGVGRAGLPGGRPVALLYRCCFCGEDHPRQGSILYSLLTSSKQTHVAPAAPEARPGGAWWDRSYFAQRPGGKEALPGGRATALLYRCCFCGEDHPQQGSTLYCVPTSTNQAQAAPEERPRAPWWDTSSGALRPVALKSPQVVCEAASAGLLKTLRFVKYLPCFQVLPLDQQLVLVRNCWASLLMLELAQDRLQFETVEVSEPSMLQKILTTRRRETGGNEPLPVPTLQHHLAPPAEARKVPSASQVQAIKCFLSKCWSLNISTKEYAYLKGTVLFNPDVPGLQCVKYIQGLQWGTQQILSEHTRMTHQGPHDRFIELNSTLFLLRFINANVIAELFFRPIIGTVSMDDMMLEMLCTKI

[13] = cells; assay type: functional, cell-based
[14] = biological target: T3, Trace amine-associated receptor 1 (Homo sapiens, UniProt Q96RJ0); assay: Counterscreen for agonists of the human trace amine associated receptor 1 (hTAAR1): Fluorescence-based cell-based high throughput dose response assay to identify hTAAR1 agonist that also desensitize TAAR1 receptor response.; assay type: functional
T3 sequence (Q96RJ0 whole entry): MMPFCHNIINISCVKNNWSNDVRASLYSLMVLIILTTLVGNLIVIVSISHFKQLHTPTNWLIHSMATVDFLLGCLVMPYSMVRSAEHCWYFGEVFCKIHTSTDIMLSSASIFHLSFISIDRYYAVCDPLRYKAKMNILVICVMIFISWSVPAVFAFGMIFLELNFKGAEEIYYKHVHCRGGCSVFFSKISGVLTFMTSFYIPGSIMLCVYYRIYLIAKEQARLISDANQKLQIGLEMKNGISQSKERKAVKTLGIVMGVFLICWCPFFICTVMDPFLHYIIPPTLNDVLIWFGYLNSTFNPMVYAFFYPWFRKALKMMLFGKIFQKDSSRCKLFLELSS

[15] = cells; assay type: functional, cell-based; remark: listed apart in the source
[16] = biological target: T3, Trace amine-associated receptor 1; assay: Fluorescence-based cell-based high throughput dose response assay to identify agonists of the human trace amine associated receptor 1 (TAAR1).; assay type: functional
[17] = cells; assay type: functional, cell-based; remark: listed apart in the source
[18] = HepG2 cell cytotoxicity, dose response, cytotoxicity control, cherry-picked samples (AID 1159577); assay type: functional, cell-based
[19] = P. falciparum Dd2 growth inhibitors, dose response, SYBR Green, cherry-picked samples (AID 1159567); assay type: functional, cell-based

SMILES: CCOc1ccc2oc(C(=O)OCC(=O)NC3CCCC3)c(C)c2c1
- IC50 [1]: 2.59 µM (active)

SMILES: c1ccc(N2CCN(c3nc(NCc4ccco4)c4ccccc4n3)CC2)cc1
- EC50 [2]: 11 µM (active)
- EC50 [3]: > 60 µM (not active)
- EC50 [4]: 2.3 µM (active)
- EC50 [5]: 10.8 µM (active)

SMILES: C(=C\c1ccco1)/c1nc2ccccc2[nH]1
- AC50 [6]: 26 µM (active)

SMILES: N#Cc1nc(-c2cccs2)oc1N1CCN(Cc2ccccc2)CC1
- IC50 [1]: 0.849 µM (active)

SMILES: CC(=O)N1c2ccc(S(=O)(=O)N3CCCC(C(=O)Nc4cc(C)cc(C)c4)C3)cc2CC1C (configuration not stated)
- IC50 [7]: 10.4 µM (inactive)
- IC50 [8]: > 138 µM (inactive)

SMILES: CC1=CC(C)(C)N=C(S)N1c1cccc2ccccc12
- IC50 [9]: > 122 µM (inactive)

SMILES: CCc1ccc2nc(SCC(=O)N(CC)CC)c(C#N)cc2c1
- IC50 [10]: > 69.5 µM (not active)

SMILES: O=S(=O)(O)c1nc2ccccc2n1Cc1ccccc1
- IC50 [11]: > 50 µM (not active)

SMILES: COc1ccc(C(=O)COc2ccc(C)cc2NC(C)=O)cc1
- AC50 [6]: > 52 µM (inactive)

SMILES: O=C(NCC1(N2CCCCC2)CCCCC1)c1cccc(S(=O)(=O)Nc2ccc(F)cc2)c1
- IC50 [12]: > 67.5 µM (inactive)
- IC50 [13]: > 67.5 µM (inactive)

SMILES: COc1cccc(C(=O)N[C@H](C(=O)N2CCC[C@H]2C(=O)NCCc2ccccc2Cl)c2ccccc2)c1
- IC50 [14]: 7.36 µM (active)
- IC50 [15]: > 29.9 µM (inactive)
- EC50 [16]: 6.46 µM (active)
- EC50 [17]: > 29.9 µM (inactive)

SMILES: N#C[C@@H]1[C@H](c2ccc(C#CCC3CCCC3)cc2)[C@H](CO)N1C(=O)c1ccccn1
- AC50 [18]: 26 µM (active)
- AC50 [19]: 3.37 µM (active)

SMILES: CCCNC(=O)N1CC2(CCN(S(=O)(=O)c3ccc(OC)cc3)CC2)c2c(n(C)c3cc(OC)ccc23)[C@@H]1CO
- AC50 [18]: > 39 µM (inactive)
- AC50 [19]: 3.11 µM (active)

SMILES: c1ccc(CN(CC2=NCCN2)c2ccccc2)cc1 [ANTAZOLINE PHOSPHATE]
- IC50 [14]: > 29.9 µM (inactive)
- IC50 [15]: > 29.9 µM (inactive)
- EC50 [16]: > 9.97 µM (active)
- EC50 [17]: > 29.9 µM (inactive)
